Laboratory results taken from patent US20200384072A1, “THERAPY OF IONIZING RADIATION-INDUCED DISORDERS” (SCK-CEN, priority 2019, published 2020).

Assays:
TICAE cells [1] = experiment: IGFBP-7 and GDF-15 multiplex-based assays, TICAE cells; type: cell-based, human; conditions: 7 d p.i.
Procedure: TICAE and TIME cells were seeded in a 6-well plate at a density of 2.5×10^5 cells/well in 5 to 6 biological replicates. Two to three days later, cells reached 100% confluence. At 30 minutes before X-ray exposure, cells were refreshed with medium with or without 100 μM TAT-Gap19 (Genosphere Biotechnologies, Paris, France). At 24 h, 48 h, 72 h and 7 d after irradiation, the supernatant was collected. Medium was changed only for the 7 d time point experiment at the fourth day with fresh medium alone or with medium supplemented with 100 μM TAT-Gap19. For the simultaneous detection of multiple cytokines in the supernatants, the Magnetic Luminex® Assay (R&D systems, Minneapolis, […]) was used following manufacturer's instructions. Briefly, supernatants, standards and microparticles were incubated into a 96-well plate which was pre-coated with cytokine-specific antibodies. The immobilized antibodies were able to bind the cytokines of interest after 2 h incubation, then the plate was washed and incubation with a biotinylated antibody cocktail specific to the cytokines of interest was performed for 1 h. A second wash was performed to remove the unbound biotinylated antibodies. Further, a streptavidin-phycoerythrin conjugate was added to each well to bind to the biotinylated antibodies. After a final wash, the microparticles were resuspended in buffer and read using the Luminex® MAGPIX Analyzer (R&D systems, Minneapolis, […]).

Cx43 hemichannels = molecular target: T1, Cx43 hemichannels (Homo sapiens, UniProt P17302); experiment: Propidium iodide dye uptake assay after irradiation, TICAE cells; type: cell-based
T1 construct: endogenous in cells; host or cells: TICAE and TIME cells (human endothelial cell lines)
Source text: Hemichannel opening was also investigated by dye uptake studies making use of the hemichannel permeable fluorescent tracer propidium iodide (PI; MW 668.4 Da). In addition, dextran fluorescein 10 kDa dye was used to assess membrane integrity and occurrence of cell death. PI stains cells with open hemichannels, late apoptotic and necrotic cells, while dextran fluorescein only stains late apoptotic and necrotic cells. Therefore, PI-positive and dextran fluorescein-negative cells are a measure for hemichannel opening while dextran fluorescein-positive cells are a measure for dead cells.
TICAE and TIME cells were seeded in a 24-well plate at a density of 1.25×10^5 and 1.5×10^5 cells/well, respectively, in six biological replicates. Three days later, cells reached 100% confluence. Thirty minutes before irradiation, cells were refreshed with 1 ml medium alone or with medium supplemented with 100 μM TAT-Gap19 (Genosphere Biotechnologies, Paris, France). For fractionated irradiation, cells were refreshed with 1.5 ml medium/well. At different time points after irradiation (1, 6 and 72 h), cells were washed twice with HMS supplemented with 25 mM HEPES (Sigma-Aldrich Co. LCC, Diegem, Belgium) (HBSS-HEPES). Afterwards, the cells were incubated with 1 mM PI and 200 μM dextran fluorescein (10 kDa) (Life Technologies, Merelbeke, Belgium), dissolved in HBSS-HEPES for 5 minutes followed by 5 times washing with MSS-HEPES. Finally, the fluorescence was measured using an IncuCyte ZOOM® system (Essen BioScience, Ann Arbor, Mich., USA) by using different channels (TRITC, FITC and phase contrast) and a 10× objective Fluorescence signal was normalized to cell number.

TIME cells = experiment: DNA damage, gamma H2AX and TP53BP1 foci, TIME cells; type: cell-based, human; conditions: 100 μM TAT-Gap19, 0.1 and 5 Gy, 1 h p.i.
Procedure: To detect DNA double strand breaks after IR, TICAE and TIME cells were seeded in Nunc™ Lab-Tek™ Chamber Slide (Thermo Fisher Scientific, Asse, Belgium) in 8 replicates, at seeding density of 50 000 cells/well. Two days later, cells reached 100% confluence. At 30 min before IR, a fresh medium was added to the cells with or without 100 μM TAT-Gap19. At 1 h post irradiation, cells were fixed with 2% PFA (Sigma-Aldrich Co. LCC, Diegem, Belgium) and permeabilized with 0.25% Triton X-100 (Sigma-Aldrich Co. LCC, Diegem, Belgium) in PBS. Cells were blocked for 1 h in 1% normal goat serum (Thermo Fisher Scientific, Asse, Belgium) in Tris-NaCl (Perkin Elmer, Brussels, Belgium). Thereafter, staining with 1/300 primary anti-gamma H2AX antibody (Merck-Millipore #05-636) and 1/1000 anti-TP53BP1 antibody (Novus Biologicals #NB100-304) was performed for 1 h at 37° C. After washing 3 times with PBS, secondary Alexa Fluor 488 and 568 antibodies (Life Technologies, Merelbeke, Belgium) were applied for 1 h at 37° C. Finally, the slides were mounted using ProLong Diamond Antifade Mountant with DAPI (Life Technologies, Merelbeke, Belgium), and cells were visualized with an Eclipse Ti automated inverted wide-field epifluorescence microscope (Nikon, Brussels, Belgium) equipped with a 20×Plan Fluor objective (NA 0.6) and an Andor Ixon EMCCD camera, controlled by the MS Elements software. […]

TICAE cells [2] = experiment: Intracellular ROS, CM-H2DCFDA flow cytometry, TICAE cells; type: cell-based, human; conditions: 100 μM TAT-Gap19, 0.1 Gy, 45 min
Procedure: TICAE and TIME cells were seeded in a 6-well plate at a density of 250000 cells/well. Three days later, cells reached 100% confluence. At 30 minutes before X-ray exposure (0.1 and 5 Gy), cells were washed with PBS to remove traces of the original medium. Afterwards, HMS supplemented with 25 mM HEPES (Sigma-Aldrich Co. LCC, Diegem, Belgium) and 10 μmol/L of the CM-H2DCFDA dye (Sigma-Aldrich Co. LCC, Diegem, Belgium) was added to the cells, and 100 μM TAT-Gap19 (Genosphere Biotechnologies, Paris, France) was added to block the Cx43 hemichannels. After irradiation, cells were washed with PBS and a 0.05% trypsin solution supplemented with 0.02% EDTA was used to detach the cells, followed by a 5 minute incubation time (37° C., 5% CO2). After trypsinization, the cells were transferred into a 1.5 mL tube and centrifuged for […] at 200 RCF. The supernatant was discard and the pellet was re-suspended in MSS without Ca2+ and Mg2+(Sigma-Aldrich Co. LCC, Diegem, Belgium). Finally, 1 μg/mL PI was added to each sample to exclude the dead cells. A positive control, 20 μmol/L tert-butyl hydroxyperoxide (tBHP), was added to the cells and incubated for 15 min. Intracellular ROS was assessed by analyzing the fluorescent signals using BD Accuri™ c6 Flow Cytometry (BD Biosciences, San Jose, Calif. USA). At least 10 000 events were measured. […]

T1 sequence (P17302 whole entry): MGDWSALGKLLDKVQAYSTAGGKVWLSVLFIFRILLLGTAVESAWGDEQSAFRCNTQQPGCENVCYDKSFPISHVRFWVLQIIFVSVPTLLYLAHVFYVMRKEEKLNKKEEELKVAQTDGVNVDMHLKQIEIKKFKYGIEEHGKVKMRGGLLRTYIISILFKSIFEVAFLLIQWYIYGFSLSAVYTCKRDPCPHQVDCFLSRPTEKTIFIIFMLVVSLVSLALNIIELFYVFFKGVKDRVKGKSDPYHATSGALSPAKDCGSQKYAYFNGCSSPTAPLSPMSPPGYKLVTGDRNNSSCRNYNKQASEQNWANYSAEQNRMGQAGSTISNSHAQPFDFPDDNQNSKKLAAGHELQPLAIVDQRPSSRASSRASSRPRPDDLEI

TAT-Gap19: connexin mimetic peptide, amino-acids 128-136 of the CL of Cx43 (SEQ ID NO: 2), Gap19 linked to TAT sequence; Cx43 hemichannel inhibitor (YGRKKRRQRRRKQIEIKKFK)
GDF-15 (TICAE cells [1]; 100 μM TAT-Gap19, 0, 0.1 and 5 Gy): significantly inhibited these responses in all treated conditions | IGFBP-7 (TICAE cells [1]; 100 μM TAT-Gap19, 0.1 Gy): acted in a significantly inhibitory way | IGFBP-7 (radiation-induced increase) (TICAE cells [1]; 100 μM TAT-Gap19, 5 Gy): not inhibited | radiation-induced PI dye uptake (Cx43 hemichannels; 100 μM TAT-Gap19, fractionated 5 Gy, 72 h): had no effect | radiation-induced PI dye uptake (Cx43 hemichannels; 100 μM TAT-Gap19, single 5 Gy, 1 h p.i.): Significant inhibition | radiation-induced PI dye uptake (Cx43 hemichannels; 100 μM TAT-Gap19, single irradiation, 72 h p.i.): most clear and significant at the 72 h p.i. time point | gamma H2AX, TP53BP1 and colocalized foci (radiation-induced DNA damage) (TIME cells): not affected | intracellular ROS generation (flow cytometry) (TICAE cells [2]): significantly reduced intracellular ROS generation
